Assay results: ChEMBL document CHEMBL5608226, “Innovative Ketamine Formulations: Enhancing Therapeutic Efficacy and Safety” (ACS Med Chem Lett, 2024)

What was measured:
[1] = Ratio of Cmax for test compound to Cmax for Ketamine HCL in Sprague-Dawley rat at 4.64 mg/kg,po administration measured upto 4 hrs; format: ADME, organism-based; conditions: in vivo
[2] = Ratio of AUC (0 to 4 hr) for test compound to AUC (0 to 4 hr) for Ketamine HCL in Sprague-Dawley rat at 4.64 mg/kg,po administration measured upto 4 hrs; format: ADME, organism-based; conditions: in vivo

| Structure (SMILES) | Ratio [1] [%] | Ratio [2] [%] |
| --- | --- | --- |
| CC(C)[C@H](NC(=O)c1ccc[n+](COC(=O)N(C)C2(c3ccccc3Cl)CCCCC2=O)c1)C(=O)O.[Cl-] (some centres not stated) | 223 | 160 |
| CN(C(=O)OC[n+]1cccc(C(=O)N2CCC[C@H]2C(=O)O)c1)C1(c2ccccc2Cl)CCCCC1=O.[Cl-] (some centres not stated) | 178 | 166 |
| CN(C(=O)OC[n+]1cccc(C(=O)N[C@@H](CCCCN)C(=O)O)c1)C1(c2ccccc2Cl)CCCCC1=O.Cl.[Cl-] (some centres not stated) | 71.2 | 75.4 |
| CN(CC(=O)O)C(=O)c1ccc[n+](COC(=O)N(C)C2(c3ccccc3Cl)CCCCC2=O)c1.[Cl-] (configuration not stated) | 112 | 93.9 |
| CC[C@H](C)[C@H](NC(=O)c1ccc[n+](COC(=O)N(C)C2(c3ccccc3Cl)CCCCC2=O)c1)C(=O)O.[Cl-] (some centres not stated) | 246 | 223 |
| C[C@H](NC(=O)c1ccc[n+](COC(=O)N(C)C2(c3ccccc3Cl)CCCCC2=O)c1)C(=O)O.[Cl-] (some centres not stated) | 73.7 | 63.2 |
